In publication PMC9968691, “Perfluoroalkyl substances (PFASs) are substrates of the renal human organic anion transporter 4 (OAT4)” (Archives of Toxicology, 2022):
Entries after “also recorded” stand apart in the source; their conditions may differ. Marks after values point to notes of the source that are not given here.

T1: human OAT4 (Homo sapiens, UniProt Q9NSA0)
T1 construct: expressed in transfected cells; host or cells: HEK293 cells transduced with recombinant baculovirus (CMV promoter)
T1 sequence (Q9NSA0 1-550): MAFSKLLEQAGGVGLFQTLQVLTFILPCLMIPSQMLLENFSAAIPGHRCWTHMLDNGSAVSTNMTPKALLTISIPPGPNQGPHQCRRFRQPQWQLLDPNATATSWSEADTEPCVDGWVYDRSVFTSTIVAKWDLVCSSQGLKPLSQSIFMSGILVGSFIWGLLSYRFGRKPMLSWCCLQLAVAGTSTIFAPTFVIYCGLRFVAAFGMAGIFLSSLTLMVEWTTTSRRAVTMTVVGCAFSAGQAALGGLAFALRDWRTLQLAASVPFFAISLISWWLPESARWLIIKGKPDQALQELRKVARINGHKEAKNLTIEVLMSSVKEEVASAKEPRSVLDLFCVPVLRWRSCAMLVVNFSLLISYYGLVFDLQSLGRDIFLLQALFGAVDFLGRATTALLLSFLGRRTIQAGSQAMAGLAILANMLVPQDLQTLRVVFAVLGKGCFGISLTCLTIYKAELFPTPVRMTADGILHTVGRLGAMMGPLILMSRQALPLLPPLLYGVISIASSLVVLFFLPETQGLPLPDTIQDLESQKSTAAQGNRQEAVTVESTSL

T2: human URAT1 (Homo sapiens, UniProt Q96S37)
T2 construct: expressed in transfected cells; host or cells: HEK293 cells transduced with recombinant baculovirus (CMV promoter)
T2 sequence (Q96S37 1-553): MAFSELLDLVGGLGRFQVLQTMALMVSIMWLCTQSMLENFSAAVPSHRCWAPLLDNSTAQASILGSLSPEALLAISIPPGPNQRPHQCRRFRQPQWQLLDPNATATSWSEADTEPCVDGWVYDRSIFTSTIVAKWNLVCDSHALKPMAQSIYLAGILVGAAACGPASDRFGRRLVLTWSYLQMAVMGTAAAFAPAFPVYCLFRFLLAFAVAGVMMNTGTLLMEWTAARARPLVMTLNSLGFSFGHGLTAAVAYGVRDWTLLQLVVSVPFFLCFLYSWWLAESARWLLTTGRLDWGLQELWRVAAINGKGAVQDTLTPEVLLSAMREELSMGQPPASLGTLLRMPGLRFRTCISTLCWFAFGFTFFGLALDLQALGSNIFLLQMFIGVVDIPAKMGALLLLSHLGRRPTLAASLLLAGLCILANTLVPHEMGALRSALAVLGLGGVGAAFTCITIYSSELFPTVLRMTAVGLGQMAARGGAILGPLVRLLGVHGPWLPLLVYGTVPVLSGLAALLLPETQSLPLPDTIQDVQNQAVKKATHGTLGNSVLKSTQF

B1: human OAT4 (Homo sapiens) (protein)
chain: T1 sequence (Q9NSA0 1-550)
notes: expressed in transfected cells; host or cells: HEK293 cells transduced with recombinant baculovirus (CMV promoter)

Legend:
[1] = biological target: T1, human OAT4; experiment: OAT4-mediated cellular uptake kinetics (Michaelis–Menten) in OAT4-transfected vs control-transfected HEK293 cells; format: cell-based; conditions: OAT4-transfected minus control-transfected HEK293 cells, 1 min exposure, 1-300 µM; best-fit value (standard error)
Procedure: (§4) OAT4- and control-transfected cells were exposed for 1 min to a range of PFAS concentrations (1, 3, 10, 30, 100 and 300 µM) and cellular amounts were determined.
(§5) OAT4-transfected cells and control-transfected cells were exposed for 1 min to a range of PFAS concentrations and cellular amounts were determined. Amounts obtained in control-transfected cells were subtracted from amounts obtained in OAT4-transfected cells to obtain OAT4-mediated cellular uptake rates.

[2] = biological target: T1, human OAT4; experiment: Screening of cellular PFAS accumulation in OAT4-transfected vs control-transfected HEK293 cells (PFAS mixture); format: cell-based; conditions: for Transport by OAT4 (cellular PFAS level in OAT4-transfected vs control-transfected cells; substantial = at least twofold higher): PFAS mixture, each 1 µM, 10 min; for OAT4 substrate: yes/no as identified in vitro in this study
Excerpt: (§1) The recombinant baculoviruses that contain the cDNA of human transporters OAT4 and URAT1 downstream of a cytomegalovirus (CMV) promotor were generated as previously described (Smeets et al. [2020]). As a negative control, baculovirus containing the gene for enhanced yellow fluorescence protein (eYFP) was produced similarly. Moreover, transduction of HEK293 cells and uptake assays were essentially performed as previously described (Smeets et al. [2020]). The culture medium was removed and cells were washed with buffer (HBSS plus 10 mM HEPES, pH 7.4). Uptake was initiated by replacing this solution with 150 µL of fresh transport buffer (HBSS (Life Technologies Invitrogen (Carlsbad, CA, USA))-HEPES (Sigma-Aldrich), pH 7.4) supplemented with the PFASs for 10 min. To terminate the reaction, transport buffer was replaced with 400 µL ice-cold HBSS-HEPES buffer containing 0.5% BSA (m/v; Roche Diagnostics GmbH (Mannheim, Germany)), after which the cells were washed twice with ice-cold HBSS-HEPES. Cellular PFAS concentrations were determined based on the method described by Rosenmai et al. ([2018]). Briefly, cells were solubilised in 250 µL lysis buffer and cell lysates were stored in Eppendorf tubes at − 80 °C and defrozen when needed for LC–MS analysis and for quantification of the protein concentration.
(§2) To 50 μL cell lysate, 850 μL methanol (Actu-All Chemicals, Oss, The Netherlands) containing internal standards (^13C4-PFHpA, ^13C4-PFOA, ^13C5-PFNA, ^13C2-PFDA, ^13C3-PFBS, ^18O2-PFHxS and ^13C4-PFOS (Wellington Laboratories, Canada) was added. These dilutions were vortexed well before centrifugation at maximum speed for 10 min at 4 °C. PFAS concentrations in the supernatant were determined using LC–MS/MS analysis. If required, samples were further diluted with methanol and containing internal standards. LC–MS/MS analysis was based on a Shimadzu UHPLC system containing: 2 pumps (LC 20AD xr); column oven (Shimadzu CTO-20AC); pump switch (Shimadzu FCV-11AL); degasser (Shimadzu DGU-20A3); and sample tray holder (Shimadzu SIL-20 AC XR model) (Shimadzu Corporation, Kyoto, Japan). An Acquity BEH-C18 analytical column (50 × 2.1 mm i.d., 1.7 μm, Waters, Milford, MA, USA) was used to separate the PFASs at a column temperature of 35 °C. In addition, a symmetry C18 analytical column (50 × 2.1 mm i.d., 5 µm, Waters, Milford, MA, USA) was used as a guard column, placed between the pump and the injector valve to isolate and delay interferences out of the LC system. The mobile phase consisted of 2 mM ammonium acetate (Merck Millipore, Darmstadt, Germany) in Milli-Q water (prepared using a Milli-Q system with a resistivity of at least 18.2 MΩ cm^−1 (Merck Millipore)) (mobile phase A) and Acetonitrile ULC/MS grade (Actu-All Chemicals, Oss, The Netherlands) (mobile phase B). The injection volume used was 20 μL. The chromatographic gradient was operated at a flow rate of 0.3 mL min^−1 starting from 25% mobile phase B in the first 0.1 min, a linear increase to 100% B in 6 min with a final hold of 2.5 min. The gradient was returned to 25% B within 0.1 min for 3.9 min to equilibrate before the next injection, resulting in a total run of 12.5 min.
(§3) Cellular PFAS content was normalised to cellular protein. To that end, from each cell lysate, 25 µL was used to determine the protein concentration (technical duplicate) using the Pierce BCA Protein Assay Kit (Thermo Scientific, Waltham, MA). First, samples were diluted two times with lysis buffer directly in a 96-wells plate (PS, F-bottom, clear; Greiner Bio-One, Alphen aan de Rijn, The Netherlands), and in each plate, a BSA standard curve (0.05–2 mg mL^−1 in lysis buffer) was included allowing protein quantification of the samples. The manufacturer’s protocol was followed for the subsequent steps and absorbance was measured using a microplate reader (Synergy™ HT BioTek, Winooski, VT) at 562 nm. […]

[3] = biological target: T2, human URAT1; experiment: Screening of cellular PFAS accumulation in URAT1-transfected vs control-transfected HEK293 cells (PFAS mixture); format: cell-based; conditions: yes/no as identified in vitro in this study
Excerpt: as §1, §2, §3

[4] = test system: albumin; conditions: cited from earlier work; for Reported albumin/water partition coefficients: ref Allendorf et al. (2019)
[5] = cited from earlier work; for Reported half-life in humans: (average) serum half-life, ref Xu et al. (2020) for PFHpA, Olsen et al. (2007), Li et al. (2018), Xu et al. (2020) for PFOA, PFHxS, PFOS, Olsen et al. (2009) for PFBS; for Reported (average) serum half-life in humans: ref Olsen et al. (2009) for PFBS, Xu et al. (2020) for PFHpA
[6] = substrate: O=C(O)C(F)(F)C(F)(F)C(F)(F)C(F)(F)C(F)(F)C(F)(F)C(F)(F)C(F)(F)C(F)(F)F; experiment: cells, lysate or membranes; conditions: other: OAT4-transfected minus control-transfected HEK293 cells, 1 min exposure, 1-300 µM; best-fit value (standard error); pH 7.4
[7] = substrate: O=C(O)C(F)(F)C(F)(F)C(F)(F)C(F)(F)C(F)(F)C(F)(F)C(F)(F)C(F)(F)F; experiment: cells, lysate or membranes; conditions: other: OAT4-transfected minus control-transfected HEK293 cells, 1 min exposure, 1-300 µM; best-fit value (standard error); pH 7.4
[8] = substrate: O=S(=O)(O)C(F)(F)C(F)(F)C(F)(F)C(F)(F)C(F)(F)C(F)(F)C(F)(F)C(F)(F)F; experiment: cells, lysate or membranes; conditions: other: OAT4-transfected minus control-transfected HEK293 cells, 1 min exposure, 1-300 µM; best-fit value (standard error); pH 7.4
[9] = substrate: O=C(O)C(F)(F)C(F)(F)C(F)(F)C(F)(F)C(F)(F)C(F)(F)C(F)(F)F; experiment: OAT4-mediated cellular uptake kinetics (Michaelis–Menten) in OAT4-transfected vs control-transfected HEK293 cells; format: cell-based, human; conditions: other: OAT4-transfected minus control-transfected HEK293 cells, 1 min exposure, 1-300 µM; best-fit value (standard error); pH 7.4
Procedure: as §4, §5

[10] = substrate: O=C(O)C(F)(F)C(F)(F)C(F)(F)C(F)(F)C(F)(F)C(F)(F)F; experiment: as above; format: cell-based, human; conditions: other: OAT4-transfected minus control-transfected HEK293 cells, 1 min exposure, 1-300 µM; best-fit value (standard error); pH 7.4
Procedure: as §4, §5

[11] = substrate: O=S(=O)(O)C(F)(F)C(F)(F)C(F)(F)C(F)(F)C(F)(F)C(F)(F)F; experiment: as above; format: cell-based, human; conditions: other: OAT4-transfected minus control-transfected HEK293 cells, 1 min exposure, 1-300 µM; best-fit value (standard error); pH 7.4
Procedure: as §4, §5

| Molecule | Transport by OAT4 (cellular PFAS level in OAT4-transfected vs control-transfected cells; substantial = at least twofold higher) [2] | OAT4 substrate [2] | URAT1 substrate [3] | Reported albumin/water partition coefficients [4] [L/kg] | Reported half-life in humans [5] | Reported (average) serum half-life in humans [5] [days] | other results |
| --- | --- | --- | --- | --- | --- | --- | --- |
| O=C(O)C(F)(F)C(F)(F)C(F)(F)C(F)(F)C(F)(F)C(F)(F)C(F)(F)C(F)(F)F [PFNA, perfluorononanoic acid] | substantial transport; also recorded: more than twofold increase | Yes | No | 4.3 | – | – | Apparent Vmax [1]: 8.5 nmol min^−1 mg protein^−1 |
| O=S(=O)(O)C(F)(F)C(F)(F)C(F)(F)C(F)(F)C(F)(F)C(F)(F)F [PFHxS, Perfluorohexane sulfonate] | substantial transport; also recorded: more than twofold increase | Yes | No | – | 2.9–8.5^c years | – | – |
| O=S(=O)(O)C(F)(F)C(F)(F)C(F)(F)C(F)(F)F [PFBS, perfluorobutane sulfonate] | rather limited; also recorded: limited transport | No | No | – | 0.07–0.12^d years | 26 to 44 | Binding to albumin ([4]; compared to the other PFASs, ref Allendorf et al. 2019, Gao et al. 2019, Lu et al. 2021): relatively low binding to albumin |
| O=C(O)C(F)(F)C(F)(F)C(F)(F)C(F)(F)C(F)(F)C(F)(F)F [PFHpA, Perfluoroheptanoic acid] | substantial transport; also recorded: more than twofold increase | Yes | No | 4.0 | 0.17^b years | 62 | – |
| O=C(O)C(F)(F)C(F)(F)C(F)(F)C(F)(F)C(F)(F)C(F)(F)C(F)(F)C(F)(F)C(F)(F)F [PFDA, perfluorodecanoic acid] | substantial transport; also recorded: more than twofold increase | Yes | No | 4.7 | – | – | – |
| B1 | – | – | – | – | – | – | Km [6]: 39 (15) µM; Vmax [6]: 0.006 µmol/min/mg; Vmax/Km [6]: 154 µL min^−1 mg protein^−1; Km [7]: 58 (15) µM; Vmax [7]: 0.0085 µmol/min/mg; Vmax/Km [7]: 147 µL min^−1 mg protein^−1; Km [8]: 48 (24) µM; Vmax [8]: 0.0022 µmol/min/mg; Vmax/Km [8]: 46 µL min^−1 mg protein^−1; Km [9]: 47 (15) µM; Vmax [9]: 0.0045 µmol/min/mg; Vmax/Km [9]: 96 µL min^−1 mg protein^−1; Km [10]: 60 (15) µM; Vmax [10]: 0.0045 µmol/min/mg; Vmax/Km [10]: 75 µL min^−1 mg protein^−1; Km [11]: 92 (33) µM; Vmax [11]: 0.0073 µmol/min/mg; Vmax/Km [11]: 79 µL min^−1 mg protein^−1 |
